Laboratory results as given in PubChem BioAssay (NCI).
Values joined by “and” are separate entries in the source; they are usually repeats but may differ in a detail not shown here. Identical values can stand only once.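 Cells were grown in 96-well plates and exposed to each compound for 48 hours at five concentrations; endpoints were interpolated linearly between bracketing concentrations, or set to the highest concentration if not reached. The concentration for 50% growth inhibition is given as GI50. TGI denotes the concentration required for complete inhibition of growth.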 Numbered stars: 1 amine (or outer) side, 2 acyl side, 3 side chain; on linkers, the order of the positions; unused ones are H or OH. Bridge positions count the residues as written; N and C are the ends. Square brackets hold non-standard residues; d marks the D form. Peptide text beside a SMILES is read from it. I, II: the chains in the order shown. Actinocin(9to1) = Cc1c2oc3c(C)ccc(C(=O)[*:1])c3nc-2c(C(=O)[*:2])c(N)c1=O; aThr = C[C@H](O)[C@H](N)C(=O)O; NMeV = CN[C@H](C(=O)O)C(C)C; Sar = CNCC(=O)O

Tests used:
Assay in all cases: NCI tumour cell line growth inhibition, 48 h
DLD-1 colon = tested on: DLD-1 colon
DMS 114 small cell lung = tested on: DMS 114 small cell lung
DMS 273 small cell lung = tested on: DMS 273 small cell lung
HOP-18 NSCLC = tested on: HOP-18 NSCLC
HS 578T breast = tested on: HS 578T breast
KM20L2 colon = tested on: KM20L2 colon
LXFL 529 NSCLC = tested on: LXFL 529 NSCLC
M19-MEL melanoma = tested on: M19-MEL melanoma
MCF7 breast = tested on: MCF7 breast
P388 leukemia = tested on: P388 leukemia
P388/ADR leukemia = tested on: P388/ADR leukemia
SN12K1 renal = tested on: SN12K1 renal
SNB-75 CNS = tested on: SNB-75 CNS
SNB-78 CNS = tested on: SNB-78 CNS
T-47D breast = tested on: T-47D breast
XF 498 CNS = tested on: XF 498 CNS

Structure (SMILES): Cc1c2oc3c(C)ccc(C(=O)N[C@@H]4C(=O)N[C@H](C(C)C)C(=O)N5CCC[C@H]5C(=O)N(C)CC(=O)N(C)[C@@H](C(C)C)C(=O)O[C@H]4C)c3nc-2c(C(=O)N[C@@H]2C(=O)N[C@H](C(C)C)C(=O)N3CCC[C@H]3C(=O)N(C)CC(=O)N(C)[C@@H](C(C)C)C(=O)O[C@H]2C)c(N)c1=O (I: [aThr][dV]P[Sar][NMeV] / II: [aThr][dV]P[Sar][NMeV]; ester I:1-I:C, II:1-II:C; linker I:N-II:N via Actinocin(9to1))
- GI50 (DLD-1 colon): 1.9 nM
- TGI (DLD-1 colon): 208 nM and 1200 nM
- GI50 (DMS 114 small cell lung): 1.01 nM
- TGI (DMS 114 small cell lung): 18.7 nM and 12.2 nM
- GI50 (DMS 273 small cell lung): 0.783 nM
- TGI (DMS 273 small cell lung): 26 nM and 17.8 nM
- GI50 (HOP-18 NSCLC): 9.03 nM
- TGI (HOP-18 NSCLC): 123 nM and 125 nM
- TGI (HS 578T breast): 47.7 nM [middle of 4 runs]
- GI50 (KM20L2 colon): 0.964 nM
- TGI (KM20L2 colon): 106 nM and 85.9 nM
- GI50 (LXFL 529 NSCLC): 1.39 nM and 0.348 nM
- TGI (LXFL 529 NSCLC): 70 nM and 320 nM
- GI50 (M19-MEL melanoma): 0.496 nM
- TGI (M19-MEL melanoma): 19.4 nM and 12.7 nM
- TGI (MCF7 breast): 69.3 nM and 250 nM and 197 nM
- TGI (P388 leukemia): 15.4 nM
- TGI (P388/ADR leukemia): 171 nM
- TGI (SN12K1 renal): 148 nM
- TGI (SNB-75 CNS): 24.6 nM [middle of 6 runs]
- GI50 (SNB-78 CNS): 4.47 nM
- TGI (SNB-78 CNS): 117 nM and 315 nM
- TGI (T-47D breast): 34.3 nM [middle of 4 runs]
- GI50 (XF 498 CNS): 0.444 nM
- TGI (XF 498 CNS): 12.8 nM and 3.03 nM
